Test results published in patent US20260374773A1, “MULTI-CYCLIC IRAK AND FLT3 INHIBITING COMPOUNDS AND USES THEREOF” (CHILDREN'S HOSPITAL MEDICAL CENTER, priority 2022, published 2026).

How the values were obtained:
[1] = target: T1, IRAK4 (Homo sapiens, UniProt Q9NWZ3); assay: RBC HotSpot kinase inhibition assay, IRAK4; assay type: biochemical; conditions: isolated kinase, 33P-ATP, 2 h
T1 sequence (Q9NWZ3 1-460): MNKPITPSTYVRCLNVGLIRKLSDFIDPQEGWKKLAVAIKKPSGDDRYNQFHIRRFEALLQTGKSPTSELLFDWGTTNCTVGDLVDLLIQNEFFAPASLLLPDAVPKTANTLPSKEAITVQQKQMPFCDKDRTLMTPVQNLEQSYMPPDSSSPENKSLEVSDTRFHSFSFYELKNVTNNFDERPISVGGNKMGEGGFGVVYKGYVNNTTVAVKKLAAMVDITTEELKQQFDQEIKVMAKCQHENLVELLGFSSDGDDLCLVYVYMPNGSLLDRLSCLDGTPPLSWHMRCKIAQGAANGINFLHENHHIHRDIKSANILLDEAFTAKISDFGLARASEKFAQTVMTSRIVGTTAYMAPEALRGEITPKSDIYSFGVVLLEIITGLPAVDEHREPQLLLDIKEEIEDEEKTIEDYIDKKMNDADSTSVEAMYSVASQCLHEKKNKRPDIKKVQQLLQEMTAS
Text: (§1) This assay uses the isolated kinase enzyme. This assay is very useful for determining competition of the inhibitor for ATP and/or substrates and for measuring the kinetics of enzyme inhibition. […] Unlike kinase binding assays that measure competition for ATP, the HotSpot Kinase Assay is a functional assay that measures catalytic activity; as such it measures relative functional potency regardless of the mechanism of enzyme inhibition. This assay uses the form of the various enzymes that are easiest to express, which may not necessarily be the form of the enzyme that exist in the cell. (Sometimes the carboxy terminus has been truncated to aid in expression, or, if it is a receptor kinase, the enzyme itself is isolated from the other parts of the receptor that are involved in regulating kinase activity.)
(§2) The reagent used was as follows: Base Reaction buffer; 20 mM Hepes (pH 7.5), 10 mM MgCl2, 1 mM EGTA, 0.01% Brij35, 0.02 mg/ml BSA, 0.1 mM Na3VO4, 2 mM DTT, 1% DMSO. Required cofactors were added individually to each kinase reaction.
(§3) The reaction procedure was as follows: • 1) Substrates were prepared in freshly prepared Reaction Buffer. • 2) Any required cofactors were delivered to the substrate solution above. • 3) Kinase was delivered into the substrate solution and gently mixed. • 4) Compounds were delivered in 100% DMSO into the kinase reaction mixture by Acoustic technology (Echo550; nanoliter range), followed by incubation for 20 min at room temp. • 5) ^33P-ATP was delivered into the reaction mixture to initiate the reaction. • 6) The mixture was incubated for 2 hours at room temperature. • 7) Kinase activity was detected by P81 filter-binding method.
as §1, with “Although not wishing to be limited by theory, it is believed that sometimes” for “(Sometimes”, “activity.” for “activity.)”
(§4) The reagent used was as follows: Base Reaction buffer; 20 mM Hepes (pH 7.5), 10 mM MgCl2, 1 mM EGTA, 0.01% Brij35, 0.02 mg/ml BSA, 0.1 mM Na3 VO4, 2 mM DTT, 1% DMSO.
(§5) Required cofactors were added individually to each kinase reaction.
as §3, with “33P-ATP” for “^33P-ATP”

[2] = target: T2, FLT3 (Homo sapiens, UniProt P36888); assay: RBC HotSpot kinase inhibition assay, FLT3; assay type: biochemical; conditions: isolated kinase, 33P-ATP, 2 h
T2 sequence (P36888 27-993): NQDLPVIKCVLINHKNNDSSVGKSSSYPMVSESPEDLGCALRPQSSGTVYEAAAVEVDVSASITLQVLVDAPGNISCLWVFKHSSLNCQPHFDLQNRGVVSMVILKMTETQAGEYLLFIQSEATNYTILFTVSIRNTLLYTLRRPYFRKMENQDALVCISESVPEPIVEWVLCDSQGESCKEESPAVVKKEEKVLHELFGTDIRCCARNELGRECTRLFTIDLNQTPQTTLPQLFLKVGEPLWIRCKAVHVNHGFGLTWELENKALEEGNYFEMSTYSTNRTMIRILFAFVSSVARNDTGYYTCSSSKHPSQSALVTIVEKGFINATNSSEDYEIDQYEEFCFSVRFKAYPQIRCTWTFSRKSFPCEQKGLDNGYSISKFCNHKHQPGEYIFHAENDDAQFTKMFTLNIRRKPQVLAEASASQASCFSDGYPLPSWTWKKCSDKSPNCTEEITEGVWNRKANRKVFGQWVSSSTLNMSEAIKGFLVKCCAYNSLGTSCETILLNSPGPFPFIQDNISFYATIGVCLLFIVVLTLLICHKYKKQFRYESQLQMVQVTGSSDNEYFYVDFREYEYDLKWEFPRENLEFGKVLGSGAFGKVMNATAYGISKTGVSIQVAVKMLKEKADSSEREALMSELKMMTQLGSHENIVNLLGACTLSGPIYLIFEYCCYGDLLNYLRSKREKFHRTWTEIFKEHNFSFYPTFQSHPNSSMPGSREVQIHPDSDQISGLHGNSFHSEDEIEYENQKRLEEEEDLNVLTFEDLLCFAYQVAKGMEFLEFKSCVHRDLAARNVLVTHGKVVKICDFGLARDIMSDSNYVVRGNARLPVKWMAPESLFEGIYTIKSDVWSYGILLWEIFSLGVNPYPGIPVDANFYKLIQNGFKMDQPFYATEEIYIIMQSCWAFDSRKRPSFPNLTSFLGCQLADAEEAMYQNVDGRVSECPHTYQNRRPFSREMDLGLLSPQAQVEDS
Text: as §1, §2, §3
as §1, with “Although not wishing to be limited by theory, it is believed that sometimes” for “(Sometimes”, “activity.” for “activity.)”
as §4, §5
as §3, with “33P-ATP” for “^33P-ATP”

[3] = target: IRAK1 (Homo sapiens, UniProt P51617); assay: RBC HotSpot kinase inhibition assay, IRAK1; assay type: biochemical; conditions: isolated kinase, 33P-ATP, 2 h
IRAK1, sequence (P51617 whole entry): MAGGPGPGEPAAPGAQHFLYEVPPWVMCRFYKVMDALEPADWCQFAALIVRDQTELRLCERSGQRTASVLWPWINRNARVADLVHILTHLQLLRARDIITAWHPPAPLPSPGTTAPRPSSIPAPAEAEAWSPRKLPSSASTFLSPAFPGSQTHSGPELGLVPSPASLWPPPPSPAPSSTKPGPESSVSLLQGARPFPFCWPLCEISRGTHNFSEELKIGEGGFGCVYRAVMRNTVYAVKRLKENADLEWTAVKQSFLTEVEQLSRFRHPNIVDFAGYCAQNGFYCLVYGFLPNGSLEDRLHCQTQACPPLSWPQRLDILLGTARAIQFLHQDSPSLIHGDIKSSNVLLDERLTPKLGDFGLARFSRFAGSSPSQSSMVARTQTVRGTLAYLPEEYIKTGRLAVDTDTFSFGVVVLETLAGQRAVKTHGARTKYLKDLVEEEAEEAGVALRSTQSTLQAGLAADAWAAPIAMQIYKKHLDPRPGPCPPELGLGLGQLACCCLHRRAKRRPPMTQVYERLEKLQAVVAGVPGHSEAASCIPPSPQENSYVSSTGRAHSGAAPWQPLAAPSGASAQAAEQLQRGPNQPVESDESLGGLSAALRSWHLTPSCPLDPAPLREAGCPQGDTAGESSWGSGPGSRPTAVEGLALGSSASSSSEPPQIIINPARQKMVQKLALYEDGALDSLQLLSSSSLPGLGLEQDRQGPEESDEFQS
Text: as §1, §2, §3
as §1, with “Although not wishing to be limited by theory, it is believed that sometimes” for “(Sometimes”, “activity.” for “activity.)”
as §4, §5
as §3, with “33P-ATP” for “^33P-ATP”

[4] = system: MOLM14 D835Y cells; assay: MOLM14 D835Y cell viability (Cell Titer Glo); assay type: cell-based; conditions: Homo sapiens
Experimental: Both cell lines have activated FLT3 receptors, each of which carry additional resistance mutations in the kinase domain (D835Y and F691L, respectively).
(§6) MOLM14 D835Y and MOLM14 F691L cells were grown in RPMI-1640 media supplemented with 20% fetal bovine serum (FBS). For viability/cytotoxicity assessments, cells were seeded into 1536-well white polystyrene tissue culture-treated Greiner plates using a Multidrop Combi dispenser (ThermoFisher), in final volume 5 μL of growth media per well, at a density of 1000 cells per well. After cell addition, 23 nL of test compound were transferred into individual wells (22 doses tested for each test compound, with a 1:2 dilution series starting at 10 μM) via a 1536 pin-tool. Bortezomib (final concentration 2.3 μM) was used as a positive control for cell cytotoxicity. Plates were incubated for 48 hours at standard incubator conditions covered by a stainless steel gasketed lid to prevent evaporation. 48 hours post compound addition, 3 μL of Cell Titer Glo (Promega) were added to each well and plates were incubated at room temperature for 15 minutes with the stainless-steel lid in place. Luminescence readings were taken using a Viewlux imager (PerkinElmer) with a 2 second exposure time per plate.
This cell line has activated FLT3 receptors, which carries an additional resistance mutation in the kinase domain at D835Y.
as §6, with “D835Y” for “D835Y and MOLM14 F691L”, “mL” for “μL”, “mM)” for “μM)”

SMILES	IC50 ([1]; Table 11) [µM]	IC50 ([2]; Table 11) [µM]	IC50 ([3]; Table 11) [µM]	IC50 ([4]; MOLM-14, Table 16, 48 h) [µM]	IC50 ([1]; Table 17) [µM]	IC50 ([4]; MOLM-14, Table 22, 48 h) [µM]	IC50 ([2]; Table 17) [µM]	IC50 ([3]; Table 17) [µM]
CC(C)Oc1cnc2c(-c3cccc(N[C@H]4CNC[C@@H]4F)n3)cnn2c1 [Compound 17, N-((3S,4S)-4-fluoropyrrolidin-3-yl)-6-(6-isopropoxypyrazolo[1,5-a]pyrimidin-3-yl)pyridin-2-amine]	0.295	0.019	3.51	–	–	–	–	–
COc1cn2ncc(-c3nc(N[C@H]4CNC[C@@H]4F)ccc3F)c2nc1C1CC1 [Compound 1, 6-(5-cyclopropyl-6-methoxypyrazolo[1,5-a]pyrimidin-3-yl)-5-fluoro-N-((3S,4S)-4-fluoropyrrolidin-3-yl)pyridin-2-amine]	< 0.0005	< 0.0005	0.0009	0.009	–	–	–	–
COc1cnc2c(-c3cccc(N[C@H]4CNC[C@@H]4F)n3)cnn2c1 [Compound 18, N-((3S,4S)-4-fluoropyrrolidin-3-yl)-6-(6-methoxypyrazolo[1,5-a]pyrimidin-3-yl)pyridin-2-amine]	0.072	0.018	2.32	–	–	–	–	–
COc1cn2ncc(-c3nc(N[C@@H]4CCCNC4)c(F)cc3F)c2nc1C1CC1 [Compound 23, (R)-6-(5-cyclopropyl-6-methoxypyrazolo[1,5-a]pyrimidin-3-yl)-3,5-difluoro-N-(piperidin-3-yl)pyridin-2-amine]	< 0.0005	< 0.0005	< 0.0005	0.005	–	–	–	–
COc1cn2ncc(-c3cncc(N[C@H]4CNC[C@@H]4F)n3)c2nc1C1CC1 [Compound 10a, 6-(5-cyclopropyl-6-methoxypyrazolo[1,5-a]pyrimidin-3-yl)-N-((3S,4S)-4-fluoropyrrolidin-3-yl)pyrazin-2-amine]	–	–	–	–	0.0007	0.081	< 0.0005	0.006
FC(F)COc1cnc2c(-c3cccc(N[C@H]4CNC[C@@H]4F)n3)cnn2c1 [Compound 16, 6-(6-(2,2-difluoroethoxy)pyrazolo[1,5-a]pyrimidin-3-yl)-N-((3S,4S)-4-fluoropyrrolidin-3-yl)pyridin-2-amine]	0.061	0.004	4.3	–	–	–	–	–
COc1cn2ncc(-c3ccc(F)c(N[C@H]4CNC[C@@H]4F)n3)c2nc1C1CC1 [Compound 4, 6-(5-cyclopropyl-6-methoxypyrazolo[1,5-a]pyrimidin-3-yl)-3-fluoro-N-((3S,4S)-4-fluoropyrrolidin-3-yl)pyridin-2-amine]	0.0009	< 0.0005	0.004	0.036	–	–	–	–
F[C@H]1CNC[C@@H]1Nc1cccc(-c2cnn3cc(C4CC4)cnc23)n1 [Compound 15, 6-(6-cyclopropylpyrazolo[1,5-a]pyrimidin-3-yl)-N-((3S,4S)-4-fluoropyrrolidin-3-yl)pyridin-2-amine]	0.267	0.015	1.29	–	–	–	–	–
F[C@H]1CNC[C@@H]1Nc1cccc(-c2cnn3cc(Cl)cnc23)n1 [Compound 14, 6-(6-chloropyrazolo[1,5-a]pyrimidin-3-yl)-N-((3S,4S)-4-fluoropyrrolidin-3-yl)pyridin-2-amine]	0.491	0.032	6.22	–	–	–	–	–
COc1cn2ncc(-c3ccnc(N[C@H]4CNC[C@@H]4F)n3)c2nc1C(C)(C)O [Compound 1a, 2-(3-(2-(((3S,4S)-4-fluoropyrrolidin-3-yl)amino)pyrimidin-4-yl)-6-methoxypyrazolo[1,5-a]pyrimidin-5-yl)propan-2-ol]	–	–	–	–	0.009	0.257	0.002	0.162
COc1cn2ncc(-c3nc(N[C@@H]4CCCNC4)c(C#N)cc3F)c2nc1C1CC1 [Compound 8, (R)-6-(5-cyclopropyl-6-methoxypyrazolo[1,5-a]pyrimidin-3-yl)-5-fluoro-2-(piperidin-3-ylamino)nicotinonitrile]	< 0.0005	< 0.0005	< 0.0005	–	–	–	–	–
